Results on 22 molecules are retold here after article PMC11436758, “Computer-aided drug design to generate a unique antibiotic family” (Nature Communications, 2024).

Each structure is given as a SMILES string. ≈ marks a conversion by molar mass, not a printed value.

AcpS, sequence (P24224 2-126): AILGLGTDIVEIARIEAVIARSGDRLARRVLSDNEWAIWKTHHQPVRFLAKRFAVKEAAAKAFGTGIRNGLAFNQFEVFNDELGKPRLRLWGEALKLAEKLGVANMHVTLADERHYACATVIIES

In one assay the test system is MRSA (ATCC 33591). Put plainly: MIC, CLSI broth microdilution. It is filed as cell-based, S. aureus. The following applies: three individual replicates. On the procedure: The medium employed for the assay was Mueller Hinton II Broth (MHB II; Becton-Dickinson, Sparks, MD, USA). Agar plates used for the organisms were trypticase soy agar plus 5% sheep blood (BD; Sparks, MD, USA). MIC assay plates were prepared using the CLSI broth microdilution procedure. Automated liquid handlers (Multidrop 384, Biomek 2000 and Biomek FX) were used to conduct serial dilutions and liquid transfers. A standardized inoculum of each organism was prepared per CLSI methods. Suspensions were prepared to equal a 0.5 McFarland standard, followed by a 1:20 dilution in test media. The inocula were dispensed into sterile reservoirs divided by length (Beckman Colter) and the Biomek 2000 was used to inoculate the plates. Daughter plates were placed on the Biomek 2000 work surface in reverse orientation so that inoculation took place from low to high drug concentration. The Biomek 2000 delivered 10 μL of the diluted suspension into each well. These inoculations yielded a final cell concentration in the daughter plates of ~5 × 10^5 colony-forming units/mL in each well. The wells of the daughter plates ultimately contained 185 μL of broth, 5 μL of drug solution, and 10 μL of bacterial inoculum. Plates were covered with a sterile lid on the top plate, placed in plastic bags, and incubated at 35 °C for ~18 h. The microplates were viewed from the bottom using a plate viewer and the MIC was read. The MIC was recorded as the lowest concentration of drug that inhibited visible growth of the organism. Uninoculated solubility control plates were also observed for evidence of drug precipitation.
(In general: Broth dilution looks for growth in wells or tubes with falling amounts of substance.)
Regarding `Cc1ccc(-c2sc(-c3ccc(Cl)cc3)cc2-c2nnn[nH]2)c2ccccc12` [DNM0473], the MIC (in general, the lowest concentration found to suppress growth) amounted to 2 µg/mL (≈ 4.96 µM).
Molecule `Cc1ccc(-c2cc(-c3ccc(Cl)cc3)cc(-c3nnn[nH]3)c2)c2ccccc12` [DNM0480] gave a minimal inhibitory concentration (MIC) of 2 µg/mL (≈ 5.04 µM).
Turning to `c1ccc(-c2ccccc2-c2cc(-c3nnn[nH]3)cc(-c3ccccc3-c3ccccc3)c2)cc1` [DNM0464], 0.5 µg/mL (≈ 1.11 µM) was the least that counted as inhibitory (MIC).
The same measure, in the same setting: then `CC(C)c1cc(Cl)ccc1-c1cc(C(=O)O)sc1-c1ccc(Cl)cc1C(C)C` [DNM0566], with 1 µg/mL (≈ 2.31 µM); and `Cc1ccc(-c2cc(-c3nnn[nH]3)cc(-c3ccc(C)c4ccccc34)c2)c2ccccc12` [DNM0461], with 0.5 µg/mL (≈ 1.17 µM); and `c1ccc(-c2cc(-c3nnn[nH]3)sc2-c2ccccc2-c2ccsc2)c(-c2ccsc2)c1` [DNM0559], with 1 µg/mL (≈ 2.13 µM).
Regarding `Cc1ccc(-c2cc(-c3nnn[nH]3)c(-c3ccccc3-c3ccccc3)s2)c2ccccc12` [DNM0478], the MIC stood at 1 µg/mL (≈ 2.25 µM).
On the same count and under the same terms, then `Cc1ccc(-c2sc(-c3ccccc3-c3ccccc3)cc2-c2nnn[nH]2)c2ccccc12` [DNM0472], with 2 µg/mL (≈ 4.5 µM); and `Clc1ccc(-c2cc(-c3nnn[nH]3)cc(-c3ccccc3-c3ccccc3)c2)cc1` [DNM0479], with 1 µg/mL (≈ 2.45 µM).
Same read-out and setting: then `CC(C)c1cc(Cl)ccc1-c1cc(-c2nnn[nH]2)sc1-c1ccc(Cl)cc1C(C)C` [DNM0548], with 2 µg/mL (≈ 4.37 µM); and `CCCCc1cccc(-c2cc(-c3nnn[nH]3)sc2Cc2ccccc2)c1` [DNM0626], with 0.5 µg/mL (≈ 1.34 µM); and `Clc1ccc(-c2cc(-c3nnn[nH]3)c(-c3ccc(Cl)cc3)s2)cc1` [DNM0213], with 2 µg/mL (≈ 5.36 µM).
Consider `Clc1cccc(-c2ccccc2-c2cc(-c3nnn[nH]3)cc(-c3ccccc3-c3cccc(Cl)c3)c2)c1` [DNM0493], for which the MIC is 2 µg/mL (≈ 3.85 µM).
Molecule `Cc1cc(Cl)ccc1-c1cc(-c2nnn[nH]2)sc1-c1ccc(Cl)cc1C` [DNM0488] yielded a minimum inhibitory concentration (MIC) of 2 µg/mL (≈ 4.98 µM).
Still for that read-out and setting: as for `Cc1ccc(-c2cc(-c3nnn[nH]3)sc2[C@@H]2CCCc3ccccc32)c2ccccc12` [DNM0636], the figure is 2 µg/mL (≈ 4.73 µM).
`CCCCc1cccc(-c2sc(-c3nnn[nH]3)c(C)c2-c2cccc(CCCC)c2)c1` [DNM0627] had a minimal inhibitory concentration (MIC) of 0.25 µg/mL (≈ 0.581 µM).
Same read-out and setting: then `Clc1ccc(-c2sc(-c3ccccc3-c3ccccc3)cc2-c2nnn[nH]2)cc1` [DNM0466], with 1 µg/mL (≈ 2.41 µM); and `Clc1ccc(Cc2sc(-c3nnn[nH]3)cc2-c2cccc(CC3CCCC3)c2)cc1` [DNM0610], with 1 µg/mL (≈ 2.3 µM); and `CC(C)(C)c1ccc(-c2cc(-c3nnn[nH]3)sc2-c2ccc(C(C)(C)C)cc2)cc1` [DNM0546], with 2 µg/mL (≈ 4.8 µM).
`c1ccc2c(c1)oc1c(-c3cc(-c4nnn[nH]4)sc3-c3cccc4c3oc3ccccc34)cccc12` [DNM0542]: the MIC is 1 µg/mL (≈ 2.06 µM). This MIC lies about 2-fold lower than the previous one.
`c1ccc(-c2ccccc2-c2cc(-c3nnn[nH]3)sc2-c2ccccc2-c2ccccc2)cc1` [DNM0489] gave an MIC of 2 µg/mL (≈ 4.38 µM).
Take `Cc1ccc(-c2ccccc2-c2cc(-c3nnn[nH]3)c(-c3ccccc3-c3ccc(C)c(C)c3)s2)cc1C` [DNM0495]: 2 µg/mL (≈ 3.9 µM) was the least that counted as inhibitory (MIC).

Another assay concerns the target AcpS (Escherichia coli, UniProt P24224). Nature of the assay: AcpS enzyme activity inhibition (IC50) by DNM compounds, [3H]acetyl-CoA / apo-ACP assay. The following applies: three individual replicates. It is filed as biochemical. The source says:
The acpP gene encoding ACP was amplified from E. coli genomic DNA and subcloned into the pGEX4T-1 vector. This construct drives the expression of glutathione S-transferase (GST) fused to the ACP open reading frame through a linker containing a consensus sequence for thrombin cleavage. The identity and veracity of acpP was verified by DNA sequencing. BL21 E. coli cells expressing GST-ACP were suspended in ice-cold phosphate buffer saline (PBS) and lysed by sonication. The lysate was made 1% Triton X-100 and rested on ice for 30 min with occasional mixing. A clear supernatant was isolated by centrifugation at 46,000 × g for 30 min, brought to 10 mM MgCl2 and 2 mM MnCl2 and incubated at room temperature for 1 h with occasional mixing. The supplementation of the lysate to 10 mM MgCl2 and 2 mM MnCl2 favors the activity of endogenous ACP phosphodiesterase (acpH) enriching the apo- fraction of GST-ACP. GST-ACP was affinity purified upon binding to glutathione-sepharose. The ACP moiety was eluted from the affinity resin by in-column thrombin digestion. Apo-ACP was separated from holo-ACP and acylated forms of ACP by ion-exchange chromatography on a Mono-Q 5/50 GL at pH 6.1 operated from an AKTA Pure 25 platform. The purity of the apo-ACP preparation was assessed by 20% PAGE on native gels containing 0.5 M urea.
The acpS gene was amplified from S. aureus and E. coli genomic DNA and inserted into a pET23b vector using standard recombinant DNA methodology such that the protein product would result in addition of a C-terminal 6x-His tag in frame with the AcpS open reading frames. The DNA sequences inserted in the vector were sequenced and found to be identical to the known E. coli and S. aureus acpS open reading frames. Recombinant His-Tagged AcpS expression was induced by IPTG addition and overnight culture. Cell lysate was obtained by sequential aspiration through 16, 18 and 21 G needles in a buffer of 50 mM Tris-HCl (pH 8.5), 10 mM MgCl2, 2 mM DTT, 5% glycerol, and further adjusted to pH 8.1 with MES. […] In a typical AcpS enzyme activity assay, 57 µM [^3H]acetyl-CoA, 2 µg apo-ACP, 10 mM MgCl2, 5 mM DTT, 50 mM Na phosphate (pH 7.0), and AcpS in a final volume of 10 µL were incubated at room temperature in a 1.5 mL microcentrifuge tube. At 5, 10, 15, and 20 min 2 µL of reaction were added to 750 µl 10% TCA on ice. Bovine serum albumin (BSA; 20 µl of a 25 mg/mL solution) was then added to facilitate precipitation of radiolabeled protein. The samples were centrifuged at 12,000 × g for 5 min. Supernatants were removed, and the pellets were rinsed twice with 750 µl of 10% trichloroacetic acid. Pellets were resuspended in 50 µl of formic acid and transferred to scintillation vials. 2 mL of scintillation fluid was added, and the amount of [^3H]-labeled holo-ACP formed was quantified by liquid scintillation counting. The enzymatic reaction proceeded in a linear manner depending on time (10–40 min) and enzyme concentration (1–5 nM). Routinely, each data point was determined at least by triplicate.
For the molecule `Cc1ccc(-c2sc(-c3ccc(Cl)cc3)cc2-c2nnn[nH]2)c2ccccc12` [DNM0473], the IC50 (as a rule, the midpoint of a concentration-inhibition curve) amounted to 10 µM. This lies in the double-digit micromolar range.
For the molecule `Cc1ccc(-c2cc(-c3ccc(Cl)cc3)cc(-c3nnn[nH]3)c2)c2ccccc12` [DNM0480], the half-maximal inhibitory concentration (IC50) came to 8 µM.
The molecule `c1ccc(-c2ccccc2-c2cc(-c3nnn[nH]3)cc(-c3ccccc3-c3ccccc3)c2)cc1` [DNM0464] came in with an IC50 of 9 µM.
The same measure, in the same setting: then `CC(C)c1cc(Cl)ccc1-c1cc(C(=O)O)sc1-c1ccc(Cl)cc1C(C)C` [DNM0566], with 13 µM.
Consider `c1ccc(-c2cc(-c3nnn[nH]3)sc2-c2ccccc2-c2ccsc2)c(-c2ccsc2)c1` [DNM0559], for which it took 9 µM to reach half-maximal inhibition (IC50).
Same read-out and setting: as for `Cc1ccc(-c2cc(-c3nnn[nH]3)c(-c3ccccc3-c3ccccc3)s2)c2ccccc12` [DNM0478], the figure is 8 µM; as for `Cc1ccc(-c2sc(-c3ccccc3-c3ccccc3)cc2-c2nnn[nH]2)c2ccccc12` [DNM0472], 10 µM; as for `Clc1ccc(-c2cc(-c3nnn[nH]3)cc(-c3ccccc3-c3ccccc3)c2)cc1` [DNM0479], 9 µM.
Same read-out and setting: as for `CC(C)c1cc(Cl)ccc1-c1cc(-c2nnn[nH]2)sc1-c1ccc(Cl)cc1C(C)C` [DNM0548], the figure is 8 µM; as for `CCCCc1cccc(-c2cc(-c3nnn[nH]3)sc2Cc2ccccc2)c1` [DNM0626], 9 µM; as for `Clc1cccc(-c2ccccc2-c2cc(-c3nnn[nH]3)cc(-c3ccccc3-c3cccc(Cl)c3)c2)c1` [DNM0493], 14 µM.
Still for that read-out and setting: as for `Cc1cc(Cl)ccc1-c1cc(-c2nnn[nH]2)sc1-c1ccc(Cl)cc1C` [DNM0488], the figure is 9 µM; as for `Cc1ccc(-c2cc(-c3nnn[nH]3)sc2[C@@H]2CCCc3ccccc32)c2ccccc12` [DNM0636], 13 µM.
The molecule `CCCCc1cccc(-c2sc(-c3nnn[nH]3)c(C)c2-c2cccc(CCCC)c2)c1` [DNM0627] had an IC50 of 10 µM.
As for `Clc1ccc(-c2sc(-c3ccccc3-c3ccccc3)cc2-c2nnn[nH]2)cc1` [DNM0466], the half-inhibitory concentration (IC50) came out at 9 µM.
Molecule `Clc1ccc(Cc2sc(-c3nnn[nH]3)cc2-c2cccc(CC3CCCC3)c2)cc1` [DNM0610] registered an IC50 of 9 µM. This lies in the single-digit micromolar range.
The same measure, in the same setting: then `CC(C)(C)c1ccc(-c2cc(-c3nnn[nH]3)sc2-c2ccc(C(C)(C)C)cc2)cc1` [DNM0546], with 16 µM; and `c1ccc2c(c1)oc1c(-c3cc(-c4nnn[nH]4)sc3-c3cccc4c3oc3ccccc34)cccc12` [DNM0542], with 12 µM.
Regarding `c1ccc(-c2ccccc2-c2cc(-c3nnn[nH]3)sc2-c2ccccc2-c2ccccc2)cc1` [DNM0489], the half-inhibitory concentration (IC50) amounted to 10 µM.
The same measure, in the same setting: as for `Cc1ccc(-c2ccccc2-c2cc(-c3nnn[nH]3)c(-c3ccccc3-c3ccc(C)c(C)c3)s2)cc1C` [DNM0495], the figure is 10 µM.
